In patent US20150299233A1, “COMPOSITIONS AND METHODS COMPRISING RHENIUM FOR THE TREATMENT OF CANCERS” (Massachusetts Institute of Technology, priority 2014, published 2015):
Where two headings read alike, the source gives them in different places.

Legend:
[1] = tested on: HeLa cervical adenocarcinoma cells; assay: MTT cytotoxicity assay, HeLa cells; type: cell-based, human
[2] = tested on: U2OS; assay: MTT cytotoxicity assay, U2OS cells; type: cell-based, human
[3] = tested on: cisplatin-sensitive cells (A2780); assay: MTT cytotoxicity assay, A2780 cells; type: cell-based, human
[4] = tested on: MRC-5; assay: MTT cytotoxicity assay, MRC-5 normal lung fibroblasts; type: cell-based, human; details: for selectivity over normal fibroblast cells (IC50 higher in normal fibroblasts than in cancer cells): cancer cells versus normal fibroblast cells
Description: In vitro toxicity of the rhenium (v) oxo complexes, 1 and 2 towards a panel of human cell lines was determined using the colorimetic MTT [[3-(4,5-dimethylithiazol-2-yl)-2,5-diphenyltetrazolium bromide] assay.
The in vitro effect of rhenium(V) oxo complexes 1 and 2 toward a panel of human cell lines was determined by the colorimetric MTT [3-(4,5-dimethylthiazol-2-yl)-2,5-diphenyltetrazolium bromide] assay. […] The IC50 values, or concentration required to induce 50% cell death, were derived from dose—response curves and are summarized in Table 1.
Cells (2×10^3 cells/well) were seeded in a 96-well plate. […] 1 and 2 were prepared as 10 mM solutions in DMSO and diluted using media. The final concentration of DMSO in each well was 0.5%, and this amount was also present in the untreated control. After 72 h, the medium was removed, 200 μL of a 0.4 mg/mL solution of MTT in DMEM, RPMI, or McCoy's 5A was added, and the plate was incubated for an additional 1-2 h. The DMEM/MTT, RPMI/MTT, or McCoy's 5A/MTT mixture was aspirated, and 200 μL of DMSO was added to dissolve the resulting purple formazan crystals. The absorbance of the solution wells was read at 550 nm. Absorbance values were normalized to DMSO-containing control wells and plotted as the concentration of test compound versus % cell viability. IC50 values were interpolated from the resulting dose-dependent curves. The reported IC50 values are the average from at least three independent experiments, each of which consisted of six replicates per concentration level.

[5] = tested on: NTERA-2; assay: MTT cytotoxicity assay, NTERA-2 cells; type: cell-based, human; details: Table 1; 72 h exposure; ± standard deviation; read-out: IC50 NTERA-2 testis carcinoma
[6] = tested on: MDA-MB-231 (breast adenocarcinoma); assay: MTT cytotoxicity assay, MDA-MB-231 cells; type: cell-based, human; details: Table 2; cisplatin-resistant cell line; 72 h exposure; read-out: IC50 MDA-M8-231 breast adenocarcinoma
[7] = tested on: MCF-7 (breast adenocarcinoma); assay: MTT cytotoxicity assay, MCF-7 cells; type: cell-based, human; details: Table 2; cisplatin-resistant cell line; 72 h exposure
[8] = tested on: PC-3 (prostate adenocarcinoma); assay: MTT cytotoxicity assay, PC-3 cells; type: cell-based, human; details: Table 2; cisplatin-resistant cell line; 72 h exposure
[9] = tested on: confluent A549 cells; assay: MTT cytotoxicity assay, confluent A549 cells; type: cell-based, human; details: for IC50: Table 2, confluent cells, 72 h exposure, read-out: IC50 A549 (confluent) lung carcinoma; for IC50 higher in confluent A549 cells than in A549 cells in log phase growth: confluent versus log phase
[10] = Variable-temperature 1H NMR stability in DMSO; type: physicochemical; details: intact up to 75° C.
Description: Two rhenium(v) oxo complexes (1 and 2; see Scheme 1) were prepared by reacting ReOCI3)2 with […] of the corresponding bidentate ligand in methanol. The complexes were isolated in reasonable yields as pale green solids and fully characterized by NMR and IR spectroscopy, ESI-MS spectrometry, and elemental analysis.
Synthesis and Characterization. The rhenium(V) oxo complexes 1 and 2 (see Scheme 1) were prepared by the reaction of [ReOCl3(PPh3)2] with 1.5 equiv of the corresponding bidentate ligand in methanol (Scheme 1). The complexes were isolated in reasonable yields as pale green solids and fully characterized by NMR and IR spectroscopy and ESI mass spectrometry. The purity of the complexes was confirmed by elemental analysis.

[11] = tested on: A549 cells; assay: Immunoblotting analysis of treated A549 cells; type: cell-based, human; details: for cleaved caspases 7 and 9: 50-500 nM for 72 h; for FADD and cleaved caspase 8 expression: increasing concentration; for overall expression level of RIP1 and RIP3: increasing dosages
Description: In order to determine the cell-killing mechanism of 1 and 2, cytotoxicity studies in the presence of apoptosis and necrosis inhibitors were conducted. […] The possibility that 1 and 2 induce necroptosis was then investigated. Necroptosis is a well-regulated mode of cell death that is different from unregulated necrosis and apoptosis. Unlike unregulated necrosis, which can be induced by H2O2 or heat, necroptosis generally involved the interaction of protein kinases, RIP1 and RIP3, to initiate cell disintegration. This process can be blocked by necrostatin-1, a potent RIP1 kinase inhibitor. To determine whether 1 and 2 induced necroptosis and/or uncontrolled necrosis, cytotoxicity studies were conducted in the presence of necrostatin-1 (60 μM) and IM-54 (10 μM), an inhibitor of H2O2-induced necrosis. […] Therefore, 1- and 2-induced cell death relies on RIP1-RIP3 complex formation and not on the expression levels of the individual protein kinases. RIP1 can also form a cytosolic complex with Fas-associated death domain (FADD) and caspase 8, known as a ripoptosome, to initiate apoptosis (through caspase 8 cleavage).
(PARP-1). PARP-1 is a nuclear enzyme that is involved in DNA repair and transcriptional regulation. DNA damage can trigger PARP-1 activity, resulting in ATP and NAD depletion and bioenergetics- mediated cell death. To determine whether PARP-1 activity is a factor in 1- and 2-mediated cell death, cytotoxicity assays were conducted with wild-type mouse embryonic fibroblast cells (MEFs PARP-1+/+) and the corresponding PARP-1-null cells (MEFs PARP-1−/−). […] Recently, p53 has also been reported to play a role in necroptosis. p53 induces cathepsin Q, a lysosomal protease that cooperates with ROS to execute necrosis. To investigate whether p53 might play a role in 1- and 2-mediated necroptosis, cytotoxicity studies were conducted with HCT116 p53^+/+ nd HCT116 p53^−/− cells.
Immunoblotting Analysis. A549 cells (1.5×10^6 cells/well) grown in six-well plates were incubated with 1 and 2 (concentrations, sub-μM) for 72 h at 37° C. Cells were washed with PBS, scraped into SDS-PAGE loading buffer (64 mM Tris-HCl (pH 6.8)/9.6% glycerol/2% SDS/5% /1-mercaptoethanol/0.01% Bromophenol Blue), and incubated at 95° C. for 10 min. Whole cell lysates were resolved by 4-20% sodium dodecyl sulfate polyacylamide gel electrophoresis (SDS-PAGE; 200 V for 25 min), followed by electro-transfer to polyvinylidene difluoride membrane (350 mA for 1 h). Membranes were blocked in 5% (w/v) non-fat milk in PBST (PBS/0.1% Tween 20) and incubated with the appropriate primary antibodies (Cell Signalling Technology and Santa Cruz). After incubation with horseradish peroxidase-conjugated secondary antibodies (Cell Signalling Technology), immuno complexes were detected with the ECL detection reagent (BioRad) and analyzed using an Alpha Innotech Chemilmager 5500 instrument fitted with a chemiluminescence filter.

[12] = tested on: C57BL/6 mice; assay: In vivo acute toxicity in mice; details: single i.p. doses 3-36 mg/kg in saline, monitored 6 days
Description: In Vivo Toxicity and Stability in Whole Human Blood. Given the impressive in vitro data acquired for 1 and 2, an in vivo study was conducted with C57BL/6 mice to determine acute toxicity and possible side effects. Single doses of 1 and 2 (3, 7, 11,15, 20, and 36 mg/kg) in saline were administered by intraperitoneal injection. The mice were then monitored for signs of pain, distress, and weight loss for 6 days post-treatment. […] The pharmacological toxicity profile of 1 and 2 is very appealing in terms of further preclinical studies.

[13] = Table 1, 72 h exposure, ± standard deviation, read-out: IC50 HeLa cervical adenocarcinoma
[14] = Table A, average of three independent determinations, read-out: IC50 HeLa (cervical)
[15] = Table 1, 72 h exposure, ± standard deviation, read-out: IC50 U2OS bone osteosarcoma
[16] = Table A, average of three independent determinations, read-out: IC50 U2OS (bone)
[17] = Table 1, 72 h exposure, ± standard deviation, read-out: IC50 A2780 ovarian carcinoma
[18] = Table A, average of three independent determinations, read-out: IC50 A2780 (ovarian)
[19] = Table 1, 72 h exposure, ± standard deviation, read-out: IC50 MRC-5 lung fibroblast
[20] = Table A, average of three independent determinations, read-out: IC50 MRC5 (lung normal)

Row | SMILES | IC50 [1, 13] [nM] | IC50 [1, 14] [nM] | IC50 [2, 15] [nM] | IC50 [2, 16] [nM] | IC50 [3, 17] [nM] | IC50 [3, 18] [nM] | IC50 [4, 19] [nM] | IC50 [4, 20] [nM] | selectivity over normal fibroblast cells (IC50 higher in normal fibroblasts than in cancer cells) [4] | IC50 [5] [nM] | IC50 [6] [nM] | IC50 [7] [nM] | IC50 [8] [nM] | IC50 [9] [nM] | IC50 higher in confluent A549 cells than in A549 cells in log phase growth [9] [fold] | stability in DMSO [10] | markers of DNA damage, phosphorylated H2AX (γH2AX) and CHK2 [11] | cleaved caspases 7 and 9 [11] | FADD and cleaved caspase 8 expression [11] | overall expression level of RIP1 and RIP3 [11] | other results
1 | C[O][Re](=[O])([Cl])[Cl].c1ccc(-c2ccnc3c2ccc2c(-c4ccccc4)ccnc23)cc1 [Compound 1, [ReO(OMe)(4,7-diphenyl-1,10-phenanthroline)-Cl2]] | 445 ± 4 | 445 | 274 ± 6 | 274 ± 6 | 670 ± 40 | 670 ± 40 | 1350 ± 228 | 1350 ± 228 | about 10 fold | 230 ± 28 | 475 ± 161 | 285 ± 35 | 270 ± 14 | 8610 ± 749 | 40 | stable | did not up-regulate | not detected | remained unaltered | remained unchanged | acute toxicity in mice, gauged by weight loss [12]: no toxicity
2 | C[O][Re-2]1(=[O])([Cl])([Cl])[n+]2cc(C)c(C)c3ccc4c(C)c(C)c[n+]1c4c32 [Compound 2, [ReO(OMe)(3,4,7,8-tetramethyl-1,10-phenanthroline)Cl2]] | 695 ± 21 | 695 ± 21 | 209 ± 31 | 209 ± 31 | 150 ± 10 | 150 ± 10 | 709 ± 76 | 709 ± 76 | about 10 fold | 255 ± 35 | 1740 ± 275 | 805 ± 21 | 780 ± 10 | 5240 ± 1990 | 40 | stable | did not up-regulate | not detected | remained unaltered | remained unchanged | acute toxicity in mice, gauged by weight loss [12]: no toxicity
